Test results taken from ChEMBL document CHEMBL4680321, “Novel indolylarylsulfone derivatives as covalent HIV-1 reverse transcriptase inhibitors specifically targeting the drug-resistant mutant Y181C” (Bioorg Med Chem, 2021).
The source made the active and inactive calls. The rule behind the calls is not given here.

Key:
[1] = tested on: Human immunodeficiency virus 1; test: Antiviral activity against HIV-3B infected in human MT-4 cells assessed as reduction in virus-induced cytopathic effect incubated for 5 days by MTT assay; format: functional, organism-based; settings: Human immunodeficiency virus 1, 3B, MT4, 120 h
[2] = biological target: Human immunodeficiency virus type 1 reverse transcriptase (Human immunodeficiency virus 1, UniProt Q72547); test: Inhibition of recombinant HIV-1 BH10 reverse transcriptase using D38/[32P]25PGA as template-primer incubated for 5 mins in presence of DTT followed by dTTP addition and measured after 15 to 30 sec by nucleotide incorporation assay; design: species or system Human immunodeficiency virus type 1 BH10
[3] = Cytotoxicity against human MT4 cells assessed as reduction in cell viability incubated for 5 days by MTT assay; format: cell-based; settings: time 5 day
[4] = tested on: Human immunodeficiency virus 2; test: Antiviral activity against HIV2 ROD infected in human MT-4 cells assessed as reduction in virus-induced cytopathic effect incubated for 5 days by MTT assay; format: functional, organism-based; settings: MT4, time 5.0 day
[5] = Selectivity index, ratio of EC50 for HIV-3B infected in human MT-4 cells to EC50 for HIV-3B harboring reverse transcriptase Y181C mutant infected in human MT-4 cells; format: functional, Human immunodeficiency virus 1
[6] = Stability of compound in PBS buffer at pH 2 at 2.5 mM incubated for 24 hrs by reverse phase HPLC analysis; format: physicochemical; settings: pH 2, 24 h, 2500 µM
[7] = tested on: Human immunodeficiency virus 1; test: Antiviral activity against HIV-3B harboring reverse transcriptase Y181C mutant infected in human MT-4 cells assessed as reduction in virus-induced cytopathic effect incubated for 5 days by MTT assay; format: functional, organism-based; settings: Human immunodeficiency virus 1, 3B, MT4, 120 h
[8] = Stability of compound in PBS buffer at pH 7.4 at 2.5 mM incubated for 24 hrs by reverse phase HPLC analysis; format: physicochemical; settings: pH 7.4, 24 h, 2500 µM

| Structure (SMILES) | EC50 [1] [µM] | IC50 [2] [µM] | CC50 at 120 h [3] [µM] | Activity [4] | Ratio EC50 [5] | Stabilty [6] | EC50 [7] [µM] | Stabilty [8] |
| --- | --- | --- | --- | --- | --- | --- | --- | --- |
| NC(=O)c1[nH]c2ccc(Br)cc2c1S(=O)(=O)N1CCCC1 | 3.6 | 0.48 | 35.3 | inactive | – | – | – | – |
| O=C1Nc2ccc(Cl)cc2[C@@](C#CC2CC2)(C(F)(F)F)O1 [EFAVIRENZ] | – | – | > 6.3 | inactive | – | – | – | – |
| C=CS(=O)(=O)N[C@@H]1CCN(S(=O)(=O)c2c(C(N)=O)[nH]c3ccc(Br)cc23)C1 | > 2.1 | – | 2.1 | inactive | – | – | – | – |
| Cc1cc(/C=C/C#N)cc(C)c1Nc1ccnc(Nc2ccc(C#N)cc2)n1 [RILPIVIRINE] | 0.01 | – | – | – | – | – | – | – |
| C=CC(=O)N1CCC[C@@H](NS(=O)(=O)c2c(C(N)=O)[nH]c3ccc(Br)cc23)C1 | > 43.6 | – | 43.6 | inactive | – | – | – | – |
| C=CS(=O)(=O)N1CC[C@H](NS(=O)(=O)c2c(C(N)=O)[nH]c3ccc(Br)cc23)C1 | 9.74 | > 100 | 16 | inactive | 9.3 | Stable | 22 | Stable |
| C=CC(=O)NC1CCN(S(=O)(=O)c2c(C(N)=O)[nH]c3ccc(Br)cc23)CC1 | 125 | – | > 274 | inactive | – | – | – | – |
| C=CC(=O)N1CC[C@H](NS(=O)(=O)c2c(C(N)=O)[nH]c3ccc(Br)cc23)C1 | > 155 | – | 155 | inactive | – | – | – | – |
| C=CC(=O)N1CC[C@@H](NS(=O)(=O)c2c(C(N)=O)[nH]c3ccc(Br)cc23)C1 | > 51.8 | – | 51.8 | inactive | – | – | – | – |
| C=CS(=O)(=O)NC1CCN(S(=O)(=O)c2c(C(N)=O)[nH]c3ccc(Br)cc23)CC1 | > 6.5 | – | 6.5 | inactive | – | – | – | – |
| C=CS(=O)(=O)N1CCC[C@@H](NS(=O)(=O)c2c(C(N)=O)[nH]c3ccc(Br)cc23)C1 | > 29 | > 100 | 29 | inactive | 7.7 | – | 40.7 | – |
| Cc1cc(C#N)cc(C)c1Oc1nc(Nc2ccc(C#N)cc2)nc(N)c1Br [ETRAVIRINE] | 0.01 | – | – | – | – | – | – | – |
| C=CC(=O)N[C@@H]1CCN(S(=O)(=O)c2c(C(N)=O)[nH]c3ccc(Br)cc23)C1 | > 178 | – | 178 | inactive | – | – | – | – |
